One data set deals with implanted murine tumors. As to conditions: compared with FAA; cited from earlier work.
Data set [1] has as its system cultured human and murine cells. As to conditions: cited from earlier work.
In another data set the test system is RIF-1 tumors. As to the method: The drawings illustrate the responses of RIF-1 tumors to either PDT (FIG. 2a) or DMXAA (FIG. 2b). Dose response data are shown in the form of Kaplan-Meier ‘survival’ plots, where the percent of RIF-1 tumors with volumes less than […] are plotted against time from treatment. Tumor volumes at the time of treatment were 50-70 mg (approximately […] of the mouse body mass).
In pilot studies of PDT plus adjuvant DMXAA only low doses of each modality were chosen. […] 23 hours, 20 mg DMXAA/kg. 2 hours, 135 J/cm^263-nm laser light. Control tumors (no drug, no light) are shown as solid black squares; DMXAA are shown as open circles; PDT alone as gray circles.
The symbols in the graph are the same as for FIG. 3.

The test system of the next data set is TNF-α. As to conditions: cited from earlier work.
For a further data set, the system named is tumor cell lines. Conditions: cited from earlier work.
Data set [2] concerns natural killer cell activity. Conditions: spleen and other tissues; cited from earlier work.
The subject of a further data set is tumor blood flow. Conditions: in vivo; cited from earlier work.
The subject of a further data set is Colon 38 tumors. Conditions: compared with FAA; cited from earlier work.

Regarding `Cc1ccc2c(=O)c3cccc(CC(=O)O)c3oc2c1C` [DMXAA, 5,6-Dimethylxanthenone-4-acetic acid], the “dose potency against implanted murine tumors” value with implanted murine tumors is on record as “considerably greater dose potencies than FAA”. Besides, in data set [1], the in vitro activity entry is listed as “active in vitro”. Moreover, the “tumor control (percent of RIF-1 tumors with volumes less than 400 mm vs time from treatment)” value in the data set on RIF-1 tumors (administered alone, Kaplan-Meier plots, FIG. 2a/2b) was “control tumors in a dose-dependent manner”. The “toxicity of most effective doses” value in the data set on RIF-1 tumors (mouse, in vivo) is “most effective doses are at or near the treatment toxic limits”. Further, the cytokine induction entry in the data set with TNF-α is “induce TNF-α along with IFN-γ”.
`O=C(O)Cc1cccc2c(=O)cc(-c3ccccc3)oc12` [FAA, Flavone-8-acetic acid]: the “in vitro activity against tumor cell lines” value in the data set on tumor cell lines is “shows in vitro activity against a number of tumor cell lines”. The “natural killer cell activity” value in data set [2] is given as “induces natural killer cell activity”. Further, in the data set on tumor blood flow, the “effect on tumor blood flow” value is reported as “causes reduction in tumor blood flow”.
For the molecule `O=C(O)Cc1cccc2c(=O)c3ccccc3oc12` [XAA, Xanthenone-4-acetic acid], the “efficiency in eliminating Colon 38 tumors” value in the data set with Colon 38 tumors was “more efficient than FAA”.

Values taken from patent publication US6495585B2, “Method for treating hyperproliferative tissue in a mammal” (Health Research, Inc., priority 2001, dated 2002).
